Results taken from US6221866A, “Indanyl-substituted benzenecarboxamides, processes for their preparation, their use as a medicament, and pharmaceutical formulations containing them” (priority 1999, dated 2001).
pIC50: −log10 of the molar value.

Legend:
[1] = system: Kv1.5 channel; details: described in the literature, side effect alongside other principal effects; cited from earlier work
[2] = system: fast-activating potassium channel IKr; details: human ventricle and atrium cells; cited from earlier work
[3] = molecular target: T1, Human Kv1.5 channels (Homo sapiens, UniProt P22460); test: Inhibition of human Kv1.5 current expressed in Xenopus oocytes (two microelectrode voltage clamp); assay type: cell-based; details: human Kv1.5 expressed in Xenopus oocytes; voltage jumps to 0 mV and 40 mV, 500 ms; RT; pH 7.4; Hill equation
T1 construct: expressed in transfected cells; host or cells: Xenopus laevis oocytes injected with Kv1.5-coding RNA synthesized in vitro
T1 sequence (P22460 whole entry): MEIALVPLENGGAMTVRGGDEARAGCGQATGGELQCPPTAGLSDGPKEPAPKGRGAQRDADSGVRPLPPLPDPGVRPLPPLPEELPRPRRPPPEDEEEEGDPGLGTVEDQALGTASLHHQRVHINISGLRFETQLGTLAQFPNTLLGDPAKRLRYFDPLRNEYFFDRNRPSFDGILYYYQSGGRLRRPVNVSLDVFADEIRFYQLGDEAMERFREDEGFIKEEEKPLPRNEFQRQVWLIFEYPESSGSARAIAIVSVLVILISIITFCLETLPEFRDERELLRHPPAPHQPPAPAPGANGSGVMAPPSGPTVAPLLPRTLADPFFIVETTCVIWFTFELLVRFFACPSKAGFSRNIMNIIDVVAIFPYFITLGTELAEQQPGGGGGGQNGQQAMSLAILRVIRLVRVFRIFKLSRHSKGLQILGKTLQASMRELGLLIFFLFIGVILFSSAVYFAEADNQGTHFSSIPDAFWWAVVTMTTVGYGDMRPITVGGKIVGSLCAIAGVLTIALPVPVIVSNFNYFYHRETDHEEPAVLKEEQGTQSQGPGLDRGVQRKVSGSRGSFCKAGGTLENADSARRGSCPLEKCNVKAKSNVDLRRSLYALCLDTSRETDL
Experimental: Human Kv1.5 channels were expressed in Xenopus oocytes. For this purpose, oocytes were first isolated from Xenopus laevis and were defolliculated. Kv1.5-coding RNA synthesized in vitro was then injected into these oocytes. After Kv1.5 protein expression for 1-7 days, Kv1.5 currents were measured on the oocytes by the two microelectrode voltage clamp technique. Here, the Kv1.5 channels were activated as a rule with voltage jumps to 0 mV and 40 mV, lasting for 500 ms. The bath was flushed with a solution of the following composition: 96 mM NACl, 2 mM KCl, 1.8 mM CaCl2, 1 mM MgCl2, and 5 mM HEPES (tritrated with NaOH to pH 7.4). These experiments were carried out at RT. The following were used for data acquisition and analysis: Geneclamp amplifier (Axon Instruments, Foster City, USA) and MacLab D/A converter and software (ADinstruments, Castle Hill, Australia). The substances according to the invention were tested by adding them in different concentrations to the bath solution. The effects of the substances were calculated as percentage inhibition of the Kv1.5 control current obtained when no substance was added to the solution. The data were then extrapolated using the Hill equation, in order to determine the inhibitory concentration (IC50) for the respective substances.

Row | Structure (SMILES) | pIC50 [3] | also measured
1 | CCCCN1CCCCC1C(=O)Nc1c(C)cccc1C (centres unmarked) [Bupivacaine] |  | blocking effect on the Kv1.5 channel (in words) [1]: blocking effect on the Kv1.5 channel
2 | CN(CCOc1ccc(NS(C)(=O)=O)cc1)CCc1ccc(NS(C)(=O)=O)cc1 [Dofetilide] |  | block of IKr (in words) [2]: predominantly or exclusively block the fast-activating potassium channel IKr
3 | NS(=O)(=O)c1cc(C(=O)NC2CCc3ccccc32)ccc1Cl (centres unmarked) [Example 1] | < 5.00 | 
4 | CCCCNS(=O)(=O)c1cc(C(=O)NC2CCc3ccccc32)ccc1Cl (centres unmarked) [Example 3] | 5.11 | 
5 | CC(C)CNS(=O)(=O)c1cc(C(=O)NC2CCc3ccccc32)c(Cl)cc1Cl (centres unmarked) [Example 10] | 5.32 | 
6 | CC(C)CCNS(=O)(=O)c1cc(C(=O)NC2CCc3ccccc32)c(Cl)cc1Cl (centres unmarked) [Example 11] | 5.55 | 
7 | O=C(NC1CCc2ccccc21)c1cc(S(=O)(=O)NC2CCCCC2)c(Cl)cc1Cl (centres unmarked) [Example 13] | 5.41 | 
8 | O=C(NC1CCc2ccccc21)c1cc(S(=O)(=O)NC2CCC2)c(Cl)cc1Cl (centres unmarked) [Example 14] | 5.38 | 
9 | CC(C)CCNS(=O)(=O)c1cc(C(=O)N[C@@H]2CCc3ccccc32)c(Cl)cc1Cl [Example 19] | ~5.52 | 
10 | CC(C)CCNS(=O)(=O)c1cc(C(=O)N[C@H]2CCc3ccccc32)c(Cl)cc1Cl [Example 20] | ~5.52 | 
11 | Cc1ccc(S(=O)(=O)NCCC(C)C)cc1C(=O)NC1CCc2ccccc21 (centres unmarked) [Example 43] | 5.28 | 
12 | Cc1ccc(S(=O)(=O)NC2CCCCC2)cc1C(=O)NC1CCc2ccccc21 (centres unmarked) [Example 51] | 5.15 | 
13 | O=C1NCCN1CCN1CCC(c2cn(-c3ccc(F)cc3)c3ccc(Cl)cc23)CC1 [Sertindole] |  | blocking effect on the Kv1.5 channel (in words) [1]: blocking effect on the Kv1.5 channel
14 | C1CCC2(C1)C1CN(CC3CC3)CC2CN(CC2CC2)C1 [Tedisamil] |  | blocking effect on the Kv1.5 channel (in words) [1]: blocking effect on the Kv1.5 channel
15 | CC(C)NC[C@@H](O)c1ccc(NS(C)(=O)=O)cc1 [d-Sotalol] |  | block of IKr (in words) [2]: predominantly or exclusively block the fast-activating potassium channel IKr

More lines, main results first:

Row | pIC50 [3] | Structure (SMILES) | also measured
16 | 5.06 | Cc1cc(C)c(S(=O)(=O)NCCC(C)C)cc1C(=O)NC1CCc2ccccc21 (centres unmarked) [Example 57] | 
17 | 5.16 | Cc1cc(S(=O)(=O)NCCC(C)C)cc(C(=O)NC2CCc3ccccc32)c1C (centres unmarked) [Example 60] | 
18 | 5.20 | O=C(NC1CCc2ccccc21)c1cc(S(=O)(=O)Nc2ccccc2)ccc1Cl (centres unmarked) [Example 62] | 
19 | 5.21 | O=C(NC1CCc2ccccc21)c1cc(S(=O)(=O)NC2CCCCC2)c(F)cc1Cl (centres unmarked) [Example 73] | 
20 | 5.06 | COc1ccc2c(c1)C(NC(=O)c1ccc(Cl)c(S(=O)(=O)NCCC(C)C)c1)CC2 (centres unmarked) [Example 88] | 
21 | 5.25 | COc1cc2c(cc1OC)C(NC(=O)c1ccc(Cl)c(S(=O)(=O)NCCC(C)C)c1)CC2 (centres unmarked) [Example 89] | 
22 | 5.55 | COc1ccc(NS(=O)(=O)c2cc(C(=O)NC3CCc4ccccc43)c(Cl)cc2F)cc1 (centres unmarked) [Example 90] | 
23 | 5.66 | CN(C(=O)c1cc(S(=O)(=O)NC2CCCCC2)ccc1Cl)C1CCc2ccccc21 (centres unmarked) [Example 94] | 
